Test results published in patent publication US20240299486A1, “ADDRESSING INJECTION SITE REACTIONS ASSOCIATED WITH THE ADMINISTRATION OF ELAMIPRETIDE” (STEALTH BIOTHERAPEUTICS INC., priority 2022, published 2024).

Columns and labels:
healthy subjects = assay: Phase 1 crossover study: self-assessed injection site reactions; type: in vivo, human; settings: 60 mg SQ elamipretide with or without the intervention, across all timepoints, all participants, n = 80
Experimental: • This Phase 1, open-label, 6-arm crossover study included 10 healthy subjects ≥18 and ≤65 years of age. • All subjects received 60 mg of SQ elamipretide to alternating quadrants of the abdomen on each of 6 occasions (FIG. 3), with or without the interventions listed in Table 2. • For each treatment arm, ISR clinical and self-assessments were performed pre-elamipretide administration and at 0.5, 1, 2, 4, 6, 12, 24, and 48 hours after each elamipretide dose. • Blood samples for plasma concentrations of elamipretide and its metabolites were also collected pre-dose and at 0.25, 0.5, 1, 2, 4, and 6 hours post-elamipretide dose. • Primary endpoints consisted of comparisons of the grading from the clinical assessments and the self-assessments of each ISR parameter following administration of elamipretide with each separate intervention versus that of elamipretide alone. • Secondary endpoints consisted of comparison of various pharmacokinetic (PK) parameters and adverse events following administration of elamipretide with each separate intervention versus that of elamipretide alone.
After the screening period (up to 28 days) in this phase 1, open-label, 4-week, 6-part, crossover study, all eligible subjects received 60 mg (0.75 mL) of SC elamipretide to alternating quadrants of the abdomen on each of 6 occasions, with or without potential ISR interventions. The first treatment arm (Arm 1) commenced on Day 1 with administration of elamipretide only, followed by the remaining treatment arms (Arms 2-6) with the following potential mitigations: mometasone furoate, 0.1% ointment, applied once under a hydrocolloid occlusive dressing (DuoDERM Extra Thin) 7 days prior to elamipretide administration (Arm 2); ice application at the elamipretide injection site 5 minutes pre- and post-drug administration (Arm 3); tacrolimus 0.1% ointment applied 15 minutes pre-drug dosing (Arm 4); doxepin 5% cream applied 15 minutes pre-elamipretide administration (Arm 5); and diphenhydramine 50 mg orally taken 2 hours prior to administration (Arm 6). For each treatment arm, blood samples for plasma concentrations of elamipretide and its metabolites were collected pre-dose and at 0.25, 0.5, 1, 2, 4, and 6 hours post-elamipretide dose. Vital signs were recorded pre-dose and at 0.5 and 6 hours post-elamipretide administration. ISR clinical and self-assessments were performed pre-elamipretide administration and at 0.5, 1, 2, 4, 6, 12, 24, and 48 hours after each elamipretide dose. Injection sites were photographed at 0.5, 1, 2, 4, and 12 hours post-elamipretide dose.
The primary endpoints of this study were comprised of the following efficacy measures: clinical assessments and subject self-assessments. Specifically, the primary endpoints consisted of comparisons of the grading of each ISR parameter following administration of elamipretide with each separate intervention versus the grading of each ISR parameter following administration of elamipretide alone. For clinical assessments, the clinical staff used a standard procedure adapted from the Division of Aids Table for Grading the Severity of Adult and Pediatric Adverse Events to score pain, erythema, induration, and pruritus using a 4-point scale based on severity (0=None, 1=Mild, 2=Moderate, 3=Severe, 4=Potentially Life Threatening). The self-assessments were based on a questionnaire to determine how bothered the patient was following each injection of elamipretide and included the following parameters: pain, burning sensation, cold sensation, itching, redness, swelling, and bruising.
All statistical analyses were performed using SAS GRID Linux/SAS Studio (Version 9.4, or higher). PK parameters for elamipretide and its metabolites, M1 and M2, were summarized using descriptive statistics.

[1] = system: wild type and Mrgprb2 knockout mice
Experimental: Adult mice up to 8 months of age were anesthetized with an intraperitoneal injection of ketamine/xylazine. Fifteen (15) minutes after induction of anesthesia, mice were injected intravenously with 50 μL of 12.5 mg/mL Evans Blue in saline. Five (5) minutes later, 5 μL of 0.5 mg/mL elamipretide (in saline) was administered by injection in one paw and saline was administered in the other paw. Fifteen (15) minutes later, mice were sacrificed by decapitation. Paw tissue was collected, dried for 24 hours at 50° C., and weighed. Evans Blue was extracted by a 24-hour incubation in formamide at 50° C., and the optical density (O.D.) was read at 600 nm (the maximum Evans Blue absorbance) and 740 nm (the minimum specific Evans Blue absorbance) using a spectrophotometer. The value at 740 nm, reflecting Evans Blue-independent O.D., was subtracted from the value at 600 nm to attain the final readout.
Injection site reactions were characterized by local inflammation and edema. The standard assay in mice to monitor local skin inflammation is the Evans Blue assay. In conditions of local skin inflammation, blood vessels become more permeable and components of blood leak out into the local tissue. Evans Blue is a dye that binds to a protein called albumin in the blood and leaks out with the albumin in inflammatory conditions. In this assay, mice were injected intravenously with Evans Blue and the amount of Evans Blue leakage in a tissue was a readout of the extent of inflammation. […] This is preferable to other skin sites in mice, as they are extremely thin, compared to human skin, and injected fluids almost immediately leave the sites of injection.

Which “Self-assessed Bruising, (%) of Reported Reactions” value (healthy subjects) does the source give for `Cc1cc(O)cc(C)c1C[C@H](NC(=O)[C@H](N)CCCNC(=N)N)C(=O)N[C@@H](CCCCN)C(=O)N[C@@H](Cc1ccccc1)C(N)=O` (stereo in doubt) [Elamipretide, H-D-Arg-2′,6′Dmt-Lys-Phe-NH2] here?
The value was “(6.3) %”.

And the “Self-assessed Bruising, Number of Reported Reactions” value (healthy subjects)?
Its value is 5.

And the “Self-assessed Burning sensation, (%) of Reported Reactions” value (healthy subjects)?
The value was “(16.3) %”.

What about the “Self-assessed Burning sensation, Number of Reported Reactions” value (healthy subjects) of the same compound?
The value was 13.

And the “Self-assessed Cold Sensation, Number of Reported Reactions” value (healthy subjects)?
Its value is 0.0.

And the “Self-assessed Itching, (%) of Reported Reactions” value (healthy subjects)?
Its value is “(20.0) %”.

And the “Self-assessed Itching, Number of Reported Reactions” value (healthy subjects)?
The value was 16.

What about the “Self-assessed Pain, (%) of Reported Reactions” value (healthy subjects) of the same compound?
The value was “(13.8) %”.

What about the “Self-assessed Pain, Number of Reported Reactions” value (healthy subjects) of the same compound?
The value was 11.

What about the “Self-assessed Redness, (%) of Reported Reactions” value (healthy subjects) of the same compound?
The value was “(30.0) %”.

What about the “Self-assessed Redness, Number of Reported Reactions” value (healthy subjects) of the same compound?
The value was 24.

What about the “Self-assessed Swelling, (%) of Reported Reactions” value (healthy subjects) of the same compound?
The value was “(22.5) %”.

What about the “Self-assessed Swelling, Number of Reported Reactions” value (healthy subjects) of the same compound?
The value was 18.

What about the “reduction of Evans Blue accumulation in footpads in Mrgprb2 knockout mice” value ([1]; 0.5 mg/mL elamipretide, knockout vs wild type) of the same compound?
The value was 80%.

What about the “Evans Blue accumulation in footpads” value ([1]; Mrgprb2 knockout mice, 0.5 mg/mL elamipretide) of the same compound?
Its value is “almost no Evans Blue accumulation”.

And the “Evans Blue labeling in footpads” value ([1]; wild type mice, 5 μL of 0.5 mg/mL elamipretide injected in paw, vs saline)?
Its value is “strong Evans Blue labeling”.
